Results taken from patent US6683096B2, “Indolylpiperidine derivatives as antihistaminic and antiallergic agents” (Almirall Prodesfarma, S.A., priority 1999, dated 2004).
Read-outs that look alike come from different tables or passages of the source.

Tests used:
histamine-H1 receptors = target: T1, histamine-H1 receptors (Cavia porcellus, UniProt P31389); test: Histamine-H1 receptor binding assay ([3H]-mepyramine, guinea pig cerebellum membranes)
T1 construct: performed in guinea pig cerebellum membranes; from tissue; host or cells: guinea pig cerebellum membranes
Method: (1) Histamine-H1 receptor binding assay
Briefly, the membrane suspensions (160 μg/ml) were incubated at 30° C. with 0.7 nM [^3H]- mepyramine and different concentrations of the test compounds in a final volume of 250 μl. Binding reactions were terminated by filtration after 30 min of incubation and the bound radioactivity was determined. The specific binding was measured in the presence of 10 μM of promethazine. The affinity of each test compound to the receptor was determined by using at least six different concentrations run in duplicate. IC50 values were obtained by non-linear regression by use of SAS on a DEC AXP computer.

[1] = tested on: histamine-induced skin vascular permeability in rats; test: Histamine-induced skin vascular permeability in rats; type: in vivo; details: Rattus norvegicus, po; 3 mg/Kg orally, 4 hours after administration, male Wistar rats; read-out: inhibition of the histamine-induced wheal
Method: (2) Histamine-induced skin vascular permeability in rats
Male Wistar rats (180-210 g) were treated orally with the test compound or vehicle. One, 4, 8 and 24 hours later, the rats were lightly anaesthetized with ether. The cutaneous reaction was induced by two intradermal injections of 50 μl of histamine (100 μg/ml) onto the back, followed by a intravenous injection of 3 ml/kg of Evan's Blue (5 mg/ml), both dissolved in saline. Sixty min later, the rats were killed by cervical dislocation and the back skin dissected free. The diameter (in millimeters) of the wheal was measured in two directions and the area was calculated.

[2] = guinea pig cerebellum membranes, 0.7 nM [3H]-mepyramine, read-out: BINDING TO RECEPTOR H1 ( IC50 nM )

T1 sequence (P31389 whole entry): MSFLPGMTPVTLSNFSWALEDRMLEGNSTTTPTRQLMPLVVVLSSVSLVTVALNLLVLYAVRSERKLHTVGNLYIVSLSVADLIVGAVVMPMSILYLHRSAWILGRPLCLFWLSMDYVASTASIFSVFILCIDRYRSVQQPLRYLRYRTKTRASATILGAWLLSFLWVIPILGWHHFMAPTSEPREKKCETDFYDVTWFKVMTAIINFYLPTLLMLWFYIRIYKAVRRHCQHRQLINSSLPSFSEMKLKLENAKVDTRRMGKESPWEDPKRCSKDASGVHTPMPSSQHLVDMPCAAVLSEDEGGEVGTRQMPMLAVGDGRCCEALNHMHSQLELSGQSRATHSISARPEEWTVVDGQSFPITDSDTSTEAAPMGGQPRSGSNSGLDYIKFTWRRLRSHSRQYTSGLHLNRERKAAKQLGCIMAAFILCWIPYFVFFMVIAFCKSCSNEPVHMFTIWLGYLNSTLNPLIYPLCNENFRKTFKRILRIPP

Row | Structure (SMILES) | melting point [°C] | IC50 (histamine-H1 receptors; [2]) [nM] | inhibition in vivo at 3 mg/kg [1] [%] | IC50 (histamine-H1 receptors) [nM]
1 | CCCCCn1cc(C2CCN(CCOc3ccccc3C(=O)O)CC2)c2ccccc21 [Example 2, 2-{2-[4-(1-pentyl-1H-indol-3-yl)-piperidin-1-yl]-ethoxy}-benzoic acid] | 113 | 57 | > 50 | 
2 | CCOCCn1cc(C2CCN(CCc3ccc(C=CC(=O)O)cc3)CC2)c2ccccc21 [Example 32, 3-[4-(2-{4-[1-(2-ethoxy-ethyl)-1H-indol-3-yl]-piperidin-1-yl}-ethyl)-phenyl]-acrylic acid] |  | 59 |  | 
3 | CC(C)CCn1cc(C2CCN(CCOc3ccccc3C(=O)O)CC2)c2ccccc21 [Example 139, 2-(2-{4-[1-(3-methyl-butyl)-1H-indol-3-yl]-piperidin-1-yl}-ethoxy)-benzoic acid] | 150 to 151 | 205 |  | 
4 | CCCCCCn1cc(C2CCN(CCOc3ccccc3C(=O)O)CC2)c2ccccc21 [Example 149, 2-{2-[4-(1-hexyl-1H-indol-3-yl)-piperidin-1-yl]-ethoxy}-benzoic acid] |  | 142 | > 50 | 
5 | CCCCn1cc(C2CCN(CCOc3ccccc3C(=O)O)CC2)c2ccccc21 [Example 148, 2-{2-[4-(1-butyl-1H-indol-3-yl)-piperidin-1-yl]-ethoxy}-benzoic acid] |  | 127 | > 50 | 
6 | C=CCn1cc(C2CCN(CCOc3ccccc3C(=O)O)CC2)c2ccccc21 [Example 141, 2-{2-[4-(1-allyl-1H-indol-3-yl)-piperidin-1-yl]-ethoxy}-benzoic acid] | 123 to 125 | 97 | > 50 | 
7 | O=C(O)c1ccccc1OCCN1CCC(c2c[nH]c3ccccc23)CC1 [Example 151, 2-{2-[4-(1H-indol-3-yl)-piperidin-1-yl]-ethoxy}-benzoic acid] | 230 |  |  | 
8 | O=C(O)c1cccc(CN2CCC(c3cn(CC4CC4)c4ccccc34)CC2)c1 [Example 158, 3-[4-(1-cyclopropylmethyl-1H-indol-3-yl)-piperidin-1-ylmethyl]-benzoic acid] | 207 | 104 | > 50 | 
9 | COCCOCCn1cc(C2CCN(Cc3ccc(C(=O)O)o3)CC2)c2ccccc21 [Example 40, 5-(4-{1-[2-(2-methoxy-ethoxy)-ethyl]-1H-indol-3-yl}-piperidin-1-yl-methyl)-furan-2-carboxylic acid] | 159 | 210 |  | 
10 | CCOCCn1cc(C2CCN(CCOc3ccccc3C(=O)O)CC2)c2ccccc21 [Example 138, 2-(2-{4-[1-(2-ethoxy-ethyl)-1H-indol-3-yl]piperidin-1-yl}-ethoxy)-benzoic acid] |  | 86 | > 50 | 
11 | CCOCCn1cc(C2CCN(CCOc3ccc(C)cc3C(=O)O)CC2)c2cccc(Br)c21 [Example 143, 2-(2-{4-[7-bromo-1-(2-ethoxy-ethyl)-1H-indol-3-yl]-piperidin-1-yl}-ethoxy)-5-methyl-benzoic acid] |  | 222 |  | 
12 | CCOCCn1cc(C2CCN(CCOc3cccc(F)c3C(=O)O)CC2)c2cccc(Br)c21 [Example 85, 2-(2-{4-[7-bromo-1-(2-ethoxy-ethyl)-1H-indol-3-yl]-piperidin-1-yl}-ethoxy)-6-fluoro-benzoic acid] |  | 152 |  | 
13 | CCOCCn1cc(C2CCN(Cc3cccc(C(=O)O)c3)CC2)c2ccccc21 [Example 66, 3-{4-[1-(2-ethoxy-ethyl)-1H-indol-3-yl]-piperidin-1-ylmethyl}-benzoic acid] |  | 248 |  | 
14 | COCCn1cc(C2CCN(CCOc3ccccc3C(=O)O)CC2)c2ccccc21 [Example 140, 2-(2-{4-[1-(2-methoxy-ethyl)-1H-indol-3-yl]-piperidin-1-yl}-ethoxy)-benzoic acid] | 139 to 140 | 83 | > 50 | 
15 | O=C(O)Cc1ccc(OCCCN2CCC(c3cn(CC4CC4)c4ccccc34)CC2)cc1 [Example 159, (4-{3-[4-(1-cyclopropylmethyl-1H-indol-3-yl)-piperidin-1-yl]-propoxy}-phenyl)-acetic acid] | 83 to 85 | 68 |  | 
16 | CCOCCn1cc(C2CCN(CCOc3ccc(C(=O)O)cc3)CC2)c2ccccc21 [Example 137, 4-(2-{4-[1-(2-ethoxy-ethyl)-1H-indol-3-yl]piperidin-1-yl}-ethoxy)-benzoic acid] |  | 150 |  | 
17 | CCOCCn1cc(C2CCN(CCOc3ccc(C)cc3C(=O)O)CC2)c2cc(OC)ccc21 [Example 142, 2-(2-{4-[1-(2-ethoxy-ethyl)-5-methoxy-1H-indol-3-yl]-piperidin-1-yl}-ethoxy)-5-methyl-benzoic acid] | 144 to 146 | 386 | > 50 | 

Row | Structure (SMILES) | melting point [°C] | IC50 (histamine-H1 receptors; [2]) [nM] | inhibition in vivo at 3 mg/kg [1] [%] | IC50 (histamine-H1 receptors) [nM]
18 | O=C(O)c1ccccc1OCCN1CCC(c2cn(CC3CC3)c3cc(F)ccc23)CC1 [Example 150, 2-{2-[4-(1-cyclopropylmethyl-6-fluoro-1H-indol-3-yl)-piperidin-1-yl]-ethoxy}-benzoic acid] | 97 | 121 | > 50 | 
19 | CCOCCn1cc(C2CCN(CCCOc3cccc(C(=O)O)c3)CC2)c2ccccc21 [Example 19, 3-(3-{4-[1-(2-ethoxy-ethyl)-1H-indol-3-yl]-piperidin-1-yl}-propoxy)-benzoic acid] |  | 89 |  | 
20 | CC(C)OCCn1cc(C2CCN(CCOc3ccccc3C(=O)O)CC2)c2ccccc21 [Example 108, 2-(2-{4-[1-(2-iso-propoxy-ethyl)-1H-indol-3-yl]-piperidin-1-yl}-ethoxy)-benzoic acid] |  | 275 | > 50 | 
21 | O=C(O)c1cccc(CN2CCC(c3c[nH]c4ccccc34)CC2)c1 [Example 54, 3-[4-(1H-indol-3-yl)-piperidin-1-ylmethyl]-benzoic acid] |  | 106 |  | 
22 | C=CCOCCn1cc(C2CCN(CCOc3ccccc3C(=O)O)CC2)c2ccccc21 [Example 134, 2-(2-{4-[1-(2-allyloxy-ethyl)-1H-indol-3-yl]-piperidin-1-yl}-ethoxy)-benzoic acid] |  | 86 |  | 
23 | O=C(O)c1ccccc1OCCN1CCC(c2cn(CC3CC3)c3ccccc23)CC1 [Example 157, 2-{2-[4-(1-cyclopropylmethyl-1H-indol-3-yl)-piperidin-1-yl]-ethoxy}-benzoic acid] | 145 to 147 | 140 | > 50 | 
24 | O=C(O)c1ccccc1OCCN1CCC(c2cn(Cc3ccc(F)cc3)c3ccccc23)CC1 [Example 1, 2-(2-{4-[1-(4-fluoro-benzyl)-1H-indol-3-yl]-piperidin-1-yl}-ethoxy)-benzoic acid] |  | 310 |  | 
25 | CCOCCn1cc(C2CCN(CCOc3ccc(C)cc3C(=O)O)CC2)c2ccccc21 [Example 154, 2-(2-{4-[1-(2-ethoxy-ethyl)-1H-indol-3-yl]-piperidin-1-yl}-ethoxy)-5-methyl-benzoic acid] | 109 to 112 |  |  | 
26 | CCOCCn1cc(C2CCN(CCCC(=O)O)CC2)c2ccccc21 [Example 3, 4-{4-[1-(2-ethoxy-ethyl)-1H-indol-3-yl]-piperidin-1-yl}-butyric acid] |  | 347 |  | 
27 | CCCCCn1cc(C2CCN(CCOCC(=O)O)CC2)c2ccccc21 [Example 38, {2-[4-(1-pentyl-1H-indol-3-yl)-piperidin-1-yl]-ethoxy}-acetic acid] |  |  |  | 174
28 | CCCCCn1cc(C2CCN(Cc3ccc(C(=O)O)o3)CC2)c2ccccc21 [Example 41, 5-[4-(1-pentyl-1H-indol-3-yl)-piperidin-1-yl-methyl]-furan-2-carboxylic acid] | 163 to 165 | 111 | > 50 | 
29 | CCOCCn1cc(C2CCN(CCOc3cccc(C(=O)O)c3)CC2)c2ccccc21 [Example 10] |  | 145 |  | 
30 | CCOCCn1cc(C2CCN(CCOc3ccc(C)cc3C(=O)O)CC2)c2cc(F)ccc21 [Example 145, 2-(2-{4-[1-(2-ethoxy-ethyl)-5-fluoro-1H-indol-3-yl]-piperidin-1-yl}-ethoxy)-5-methyl-benzoic acid] |  | 116 |  | 
31 | CCCCCn1cc(C2CCN(CCCOc3ccccc3C(=O)O)CC2)c2ccccc21 [Example 15, 2-{3-[4-(1-pentyl-1H-indol-3-yl)-piperidin-1-yl]-propoxy}-benzoic acid] |  | 88 |  | 
32 | CCCCCn1cc(C2CCN(CCCC(O)c3ccc(C(C)(C)C(=O)O)cc3)CC2)c2ccccc21 (stereo not drawn) [Example 34, 2-(4-{1-hydroxy-4-[4-(1-pentyl-1H-indol-3-yl)-piperidin-1-yl]-butyl}-phenyl)-2-methyl-propionic acid] |  | 127 |  | 
33 | CCOCCn1cc(C2CCN(CCC(=O)O)CC2)c2ccccc21 [Example 153, 3-{4-[1-(2-ethoxy-ethyl)-1H-indol-3-yl]-piperidin-1-yl}-propionic acid] |  | 245 |  | 
34 | O=C(O)COCCN1CCN(C(c2ccccc2)c2ccc(Cl)cc2)CC1 (stereo not drawn) [CETIRIZINE, reference compound] |  | 226 |  | 
